{
  "source": "PubChem BioAssay (NCI)",
  "assay_in_all_cases": "NCI tumour cell line growth inhibition, 48 h",
  "key": {"ACHN renal": {"test_system": "ACHN renal"}, "SF-268 CNS": {"test_system": "SF-268 CNS"}, "HCC-2998 colon": {"test_system": "HCC-2998 colon"}, "EKVX NSCLC": {"test_system": "EKVX NSCLC"}, "SNB-75 CNS": {"test_system": "SNB-75 CNS"}, "PC-3 prostate": {"test_system": "PC-3 prostate"}, "T-47D breast": {"test_system": "T-47D breast"}, "NCI/ADR-RES ovarian": {"test_system": "NCI/ADR-RES ovarian"}, "NCI-H460 lung": {"test_system": "NCI-H460 lung"}, "HCT-116 colon": {"test_system": "HCT-116 colon"}, "SF-539 CNS": {"test_system": "SF-539 CNS"}, "MOLT-4 leukemia": {"test_system": "MOLT-4 leukemia"}, "MALME-3M melanoma": {"test_system": "MALME-3M melanoma"}, "MDA-MB-231 breast": {"test_system": "MDA-MB-231 breast"}, "SNB-19 CNS": {"test_system": "SNB-19 CNS"}, "UO-31 renal": {"test_system": "UO-31 renal"}, "UACC-257 melanoma": {"test_system": "UACC-257 melanoma"}, "786-0 renal": {"test_system": "786-0 renal"}, "HT29 colon": {"test_system": "HT29 colon"}, "BT-549 breast": {"test_system": "BT-549 breast"}, "CAKI-1 renal": {"test_system": "CAKI-1 renal"}, "M14 melanoma": {"test_system": "M14 melanoma"}, "RXF 393 renal": {"test_system": "RXF 393 renal"}, "TK-10 renal": {"test_system": "TK-10 renal"}, "SF-295 CNS": {"test_system": "SF-295 CNS"}, "SW-620 colon": {"test_system": "SW-620 colon"}, "SR leukemia": {"test_system": "SR leukemia"}, "LOX IMVI melanoma": {"test_system": "LOX IMVI melanoma"}, "CCRF-CEM leukemia": {"test_system": "CCRF-CEM leukemia"}},
  "note": "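A five-concentration, 48-hour dose response in 96-well plates underlies each endpoint, interpolated linearly between surrounding concentrations. Here, GI50 denotes the concentration required for 50% inhibition of growth. At the TGI there is no net growth.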",
  "data": [
    {"molecule": "CCN1CCN(Cc2ccc(NC(=O)Nc3nc4ccc(Oc5ccnc(C(=O)NC)c5)cc4s3)cc2C(F)(F)F)CC1", "values": [
      {"measurement": "GI50", "setting": "ACHN renal", "value": 1390, "unit": "nM"},
      {"measurement": "TGI", "setting": "ACHN renal", "value": 2710, "unit": "nM"},
      {"measurement": "GI50", "setting": "SF-268 CNS", "value": 2000, "unit": "nM"},
      {"measurement": "TGI", "setting": "SF-268 CNS", "value": 4120, "unit": "nM"},
      {"measurement": "GI50", "setting": "HCC-2998 colon", "value": 2050, "unit": "nM"},
      {"measurement": "TGI", "setting": "HCC-2998 colon", "value": 3670, "unit": "nM"},
      {"measurement": "GI50", "setting": "EKVX NSCLC", "value": 2010, "unit": "nM"},
      {"measurement": "TGI", "setting": "EKVX NSCLC", "value": 6670, "unit": "nM"},
      {"measurement": "GI50", "setting": "SNB-75 CNS", "value": 1370, "unit": "nM"},
      {"measurement": "TGI", "setting": "SNB-75 CNS", "value": 2730, "unit": "nM"},
      {"measurement": "GI50", "setting": "PC-3 prostate", "value": 1870, "unit": "nM"},
      {"measurement": "TGI", "setting": "PC-3 prostate", "value": 3580, "unit": "nM"},
      {"measurement": "GI50", "setting": "T-47D breast", "value": 1990, "unit": "nM"},
      {"measurement": "TGI", "setting": "T-47D breast", "value": 4250, "unit": "nM"},
      {"measurement": "GI50", "setting": "NCI/ADR-RES ovarian", "value": 1950, "unit": "nM"},
      {"measurement": "TGI", "setting": "NCI/ADR-RES ovarian", "value": 4210, "unit": "nM"},
      {"measurement": "GI50", "setting": "NCI-H460 lung", "value": 1910, "unit": "nM"},
      {"measurement": "TGI", "setting": "NCI-H460 lung", "value": 3630, "unit": "nM"},
      {"measurement": "GI50", "setting": "HCT-116 colon", "value": 1730, "unit": "nM"},
      {"measurement": "TGI", "setting": "HCT-116 colon", "value": 3450, "unit": "nM"},
      {"measurement": "GI50", "setting": "SF-539 CNS", "value": 1540, "unit": "nM"},
      {"measurement": "TGI", "setting": "SF-539 CNS", "value": 2970, "unit": "nM"},
      {"measurement": "GI50", "setting": "MOLT-4 leukemia", "value": 2130, "unit": "nM"},
      {"measurement": "TGI", "setting": "MOLT-4 leukemia", "value": 5020, "unit": "nM"},
      {"measurement": "GI50", "setting": "MALME-3M melanoma", "value": 1200, "unit": "nM"},
      {"measurement": "TGI", "setting": "MALME-3M melanoma", "value": 2670, "unit": "nM"},
      {"measurement": "GI50", "setting": "MDA-MB-231 breast", "value": 1740, "unit": "nM"},
      {"measurement": "TGI", "setting": "MDA-MB-231 breast", "value": 3400, "unit": "nM"},
      {"measurement": "GI50", "setting": "SNB-19 CNS", "value": 2330, "unit": "nM"},
      {"measurement": "TGI", "setting": "SNB-19 CNS", "value": 4860, "unit": "nM"},
      {"measurement": "GI50", "setting": "UO-31 renal", "value": 1830, "unit": "nM"},
      {"measurement": "TGI", "setting": "UO-31 renal", "value": 3400, "unit": "nM"},
      {"measurement": "GI50", "setting": "UACC-257 melanoma", "value": 1860, "unit": "nM"},
      {"measurement": "TGI", "setting": "UACC-257 melanoma", "value": 3510, "unit": "nM"},
      {"measurement": "GI50", "setting": "786-0 renal", "value": 1030, "unit": "nM"},
      {"measurement": "TGI", "setting": "786-0 renal", "value": 2360, "unit": "nM"},
      {"measurement": "GI50", "setting": "HT29 colon", "value": 1270, "unit": "nM"},
      {"measurement": "TGI", "setting": "HT29 colon", "value": 3420, "unit": "nM"},
      {"measurement": "GI50", "setting": "BT-549 breast", "value": 2320, "unit": "nM"},
      {"measurement": "TGI", "setting": "BT-549 breast", "value": 4250, "unit": "nM"},
      {"measurement": "GI50", "setting": "CAKI-1 renal", "value": 1940, "unit": "nM"},
      {"measurement": "TGI", "setting": "CAKI-1 renal", "value": 4150, "unit": "nM"},
      {"measurement": "GI50", "setting": "M14 melanoma", "value": 1750, "unit": "nM"},
      {"measurement": "TGI", "setting": "M14 melanoma", "value": 3380, "unit": "nM"},
      {"measurement": "GI50", "setting": "RXF 393 renal", "value": 1670, "unit": "nM"},
      {"measurement": "TGI", "setting": "RXF 393 renal", "value": 3130, "unit": "nM"},
      {"measurement": "GI50", "setting": "TK-10 renal", "value": 2500, "unit": "nM"},
      {"measurement": "TGI", "setting": "TK-10 renal", "value": 4540, "unit": "nM"},
      {"measurement": "GI50", "setting": "SF-295 CNS", "value": 1820, "unit": "nM"},
      {"measurement": "TGI", "setting": "SF-295 CNS", "value": 3660, "unit": "nM"},
      {"measurement": "GI50", "setting": "SW-620 colon", "value": 2070, "unit": "nM"},
      {"measurement": "TGI", "setting": "SW-620 colon", "value": 3870, "unit": "nM"},
      {"measurement": "GI50", "setting": "SR leukemia", "value": 281, "unit": "nM"},
      {"measurement": "TGI", "setting": "SR leukemia", "value": 846, "unit": "nM"},
      {"measurement": "GI50", "setting": "LOX IMVI melanoma", "value": 1710, "unit": "nM"},
      {"measurement": "TGI", "setting": "LOX IMVI melanoma", "value": 3170, "unit": "nM"},
      {"measurement": "GI50", "setting": "CCRF-CEM leukemia", "value": 443, "unit": "nM"}
    ]}
  ]
}
